Molecules are shown by their SMILES. Counter-ions that a name gives are not always drawn.

For the assay, the target named is T1, Leukotriene D4 receptor (Cavia porcellus, UniProt Q2NNR5).
T1 construct: The trachea and lung were removed; from tissue; host or cells: guinea pig (male Hartley) trachea and lung, crude membrane fraction
T1 sequence (Q2NNR5 1-340): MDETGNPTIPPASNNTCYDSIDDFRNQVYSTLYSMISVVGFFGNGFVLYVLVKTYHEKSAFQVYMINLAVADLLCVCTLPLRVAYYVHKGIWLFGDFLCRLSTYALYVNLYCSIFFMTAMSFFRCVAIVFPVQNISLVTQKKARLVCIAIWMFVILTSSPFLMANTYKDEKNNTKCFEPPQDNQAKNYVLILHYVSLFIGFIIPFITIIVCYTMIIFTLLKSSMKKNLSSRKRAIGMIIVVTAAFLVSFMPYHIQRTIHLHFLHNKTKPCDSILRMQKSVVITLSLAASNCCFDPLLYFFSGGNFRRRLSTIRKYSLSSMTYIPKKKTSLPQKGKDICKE
The experiment in a line: 3H-Leukotriene D4 receptor binding (guinea pig crude lung membrane). To be noted: 3H-Leukotriene D4 (0.3 nM), pH 7.5, 25° C., 30 minutes. How it is done: ^3 H-Leukotriene D4 receptor binding (i) Test Method (a) Crude lung membrane preparation Male Hartly strain guinea pigs were sacrificed by decapitation. The trachea and lung were removed and homogenized buffer (0.25M sucrose, 10 mM Tris-HCl pH 7.5, 0.1 mM EDTA) by using Polytoron (Kinematica). The homogenate was centrifuged (1000×g, 10 min) to remove tissue clumps and the supernatant was centrifuges (14000×g, 20 min) to yield pellets. The pellets were resuspended in buffer (5 mM Tris-HCl pH 7.5), homogenized with a teflon homogenizer and centrifuged (14000×g, 20 min) to yield pellets which were referred to as crude membrane fractions. The obtained pellets were stored at -70° C. until use. (b) ^3 H-Leukotriene D4 binding to preparation membrane Frozen crude membrane fractions were thawed and resuspended in Medium 1 (10 mM Tris-HCl pH 7.5, 10 mM CaCl2, 10 mM MgCl2, 5 mM cysteine, 5 mM glycine). In binding assays, ^3 H-Leukotriene D4 (0.3 nM) and drug were incubated with 100 μl of the membrane preparation in Medium 1 at 25° C. for 30 minutes in a final volume of 500 μl. Separation of receptor-bound from free ^3 H-Leukotriene D4 is achieved by immediate filtration through Whatman GF/B filters under vacuum and washed three times with 5 ml of ice-cold buffer (10 mM Tris-HCl pH 7.5). Non-specific binding was defined as binding in the presence of 1 μM Leukotriene D4. The radioactivity retained on rinsed filters was determined by a liquid-scintillation counter (Packerd TRI-CARB 4530).

Regarding `CC(C)(C)c1csc(-c2cc3cc(OCc4cccc(-c5nnn[nH]5)c4)ccc3o2)n1` [13-2), 5-{3-[2-(4-tert-Butylthiazol-2-yl)benzofuran-5-yloxymethyl]phenyl}-1H-tetrazole], the IC50 came out at 17.8 nM. The molecule `CC(C)(Cc1ccc2oc(-c3nc(C(C)(C)C)cs3)cc2c1)C(=O)Nc1nnn[nH]1` [19-2), 4-tert-Butyl-2-[5-{2-methyl-2-(1H-tetrazol-5-yl)carbamoylpropyl}benzofuran-2-yl]thiazole] displayed an IC50 of 67.7 nM.

`CC(C)(C)c1csc(-c2cc3cc(OCc4ccccc4Cc4nnn[nH]4)ccc3o2)n1` [Example 12, 5-{2-(2-(4-tert-butylthiazol-2-yl)benzofuran-5-yloxymethyl]phenylmethyl}-1H-tetrazole] returned a 50% inhibitory concentration (IC50) of 38.2 nM. `Cc1ccccc1S(=O)(=O)NC(=O)c1ccccc1COc1ccc2oc(-c3nc(C(C)(C)C)cs3)cc2c1` [Example 18, 4-tert-butyl-2-{5-[2-(2-methylbenzenesulfonamidocarbonyl)phenylmethoxy]benzofuran-2-yl}thiazole] gave a 50% inhibitory concentration (IC50) of 48.8 nM. Take `CC(C)(C)c1csc(-c2cc3cc(OCc4ccccc4CC(=O)O)ccc3o2)n1` [Example 51, 4-tert-butyl-2-[5-(2-carboxymethylphenylmethoxy)benzofuran-2-yl]thiazole hydrochloride]: the IC50 amounted to 13.8 nM.

For the origin of these results see patent US5296495A, “Thiazolylbenzofuran derivatives and pharmaceutical composition comprising the same” (Fujisawa Pharmaceutical Co., Ltd., priority 1991, dated 1994).
